How the values were obtained:
[1] = molecular target: Beta-lactamase (Pseudomonas aeruginosa (strain ATCC 15692 / PAO1 / 1C / PRS 101 / LMG12228)) (UniProt P24735); experiment: Inhibition of Pseudomonas aeruginosa beta-lactamase AmpC at 2 uM
[2] = Inhibition of Pseudomonas aeruginosa beta-lactamase TEM-1
Beta-lactamase SHV-5 = Beta-lactamase SHV-5 (Klebsiella pneumoniae, UniProt P0A3M1); experiment: Inhibition of Klebsiella pneumoniae beta-lactamase SHV5
Beta-lactamase [3] = molecular target: Beta-lactamase (Pseudomonas aeruginosa (strain ATCC 15692 / PAO1 / 1C / PRS 101 / LMG12228), UniProt P24735); experiment: Inhibition of Pseudomonas aeruginosa beta-lactamase AmpC
Beta-lactamase [4] = molecular target: Beta-lactamase (Enterobacter cloacae, UniProt P05364); experiment: Inhibition of Enterobacter colacae P99 Beta-lactamase
Beta-lactamase [5] = molecular target: Beta-lactamase (Acinetobacter baumannii, UniProt Q8RLA6); experiment: Inhibition of Acinetobacter baumannii beta-lactamase OXA40
[6] = molecular target: Beta-lactamase (Pseudomonas aeruginosa (strain ATCC 15692 / PAO1 / 1C / PRS 101 / LMG12228)) (UniProt P24735); experiment: Inhibition of Pseudomonas aeruginosa beta-lactamase AmpC at 0.8 uM

Sequence of Beta-lactamase (Pseudomonas aeruginosa (strain ATCC 15692 / PAO1 / 1C / PRS 101 / LMG12228)) (P24735 27-397 limits assumed): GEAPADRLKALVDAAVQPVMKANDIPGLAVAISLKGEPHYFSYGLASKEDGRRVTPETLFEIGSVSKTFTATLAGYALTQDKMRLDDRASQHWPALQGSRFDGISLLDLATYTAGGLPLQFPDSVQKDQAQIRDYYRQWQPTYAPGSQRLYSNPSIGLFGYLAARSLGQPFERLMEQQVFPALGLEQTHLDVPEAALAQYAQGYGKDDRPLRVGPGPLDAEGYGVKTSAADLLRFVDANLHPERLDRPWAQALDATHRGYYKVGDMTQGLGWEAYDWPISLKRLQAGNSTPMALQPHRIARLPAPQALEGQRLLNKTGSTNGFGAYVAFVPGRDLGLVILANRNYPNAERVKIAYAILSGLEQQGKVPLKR
Sequence of Beta-lactamase SHV-5 (P0A3M1 whole entry): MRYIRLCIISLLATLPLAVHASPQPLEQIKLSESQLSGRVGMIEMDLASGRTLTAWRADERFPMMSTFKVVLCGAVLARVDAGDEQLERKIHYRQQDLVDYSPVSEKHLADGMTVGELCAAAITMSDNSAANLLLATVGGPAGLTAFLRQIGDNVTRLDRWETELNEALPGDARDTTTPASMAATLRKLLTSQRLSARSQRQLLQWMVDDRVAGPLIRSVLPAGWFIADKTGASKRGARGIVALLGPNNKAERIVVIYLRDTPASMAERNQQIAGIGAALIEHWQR
Sequence of Beta-lactamase (Acinetobacter baumannii, UniProt Q8RLA6) (Q8RLA6 whole entry): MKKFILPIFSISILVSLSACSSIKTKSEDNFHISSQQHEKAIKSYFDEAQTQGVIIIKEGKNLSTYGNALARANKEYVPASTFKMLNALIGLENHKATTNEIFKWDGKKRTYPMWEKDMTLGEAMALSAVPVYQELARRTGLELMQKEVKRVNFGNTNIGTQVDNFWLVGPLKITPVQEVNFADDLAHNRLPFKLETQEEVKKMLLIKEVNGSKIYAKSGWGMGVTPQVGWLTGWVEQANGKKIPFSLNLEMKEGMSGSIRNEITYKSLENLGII
Sequence of Beta-lactamase (Pseudomonas aeruginosa (strain ATCC 15692 / PAO1 / 1C / PRS 101 / LMG12228), UniProt P24735) (P24735 whole entry): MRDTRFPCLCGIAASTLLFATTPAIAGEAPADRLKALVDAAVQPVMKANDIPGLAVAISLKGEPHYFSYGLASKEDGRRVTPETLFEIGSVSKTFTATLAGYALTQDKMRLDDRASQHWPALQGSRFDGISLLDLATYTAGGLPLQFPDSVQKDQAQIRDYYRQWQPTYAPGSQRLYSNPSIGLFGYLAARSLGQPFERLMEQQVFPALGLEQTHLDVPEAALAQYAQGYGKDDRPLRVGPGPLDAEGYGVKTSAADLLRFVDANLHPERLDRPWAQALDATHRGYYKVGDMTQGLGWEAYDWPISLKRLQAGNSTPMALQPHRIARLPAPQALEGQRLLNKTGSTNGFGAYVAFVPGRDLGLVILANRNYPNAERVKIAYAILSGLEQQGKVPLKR
Sequence of Beta-lactamase (Enterobacter cloacae, UniProt P05364) (P05364 whole entry): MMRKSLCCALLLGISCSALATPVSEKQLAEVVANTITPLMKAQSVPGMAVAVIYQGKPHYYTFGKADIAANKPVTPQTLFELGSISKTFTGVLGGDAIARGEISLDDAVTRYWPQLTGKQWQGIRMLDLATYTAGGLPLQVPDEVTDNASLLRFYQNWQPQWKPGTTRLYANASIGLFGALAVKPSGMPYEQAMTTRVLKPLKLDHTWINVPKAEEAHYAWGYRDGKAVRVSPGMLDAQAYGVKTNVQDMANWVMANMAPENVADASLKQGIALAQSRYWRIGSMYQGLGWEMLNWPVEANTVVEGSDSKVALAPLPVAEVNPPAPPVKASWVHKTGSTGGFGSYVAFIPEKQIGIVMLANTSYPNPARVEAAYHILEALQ

## CN(CC(=O)O)S(=O)(=O)c1ccc(N)cc1
[1]
  inhibition: -10%

## CC(C(=O)c1ccccc1)C(=O)C(F)(F)F (configuration not stated)
[1]
  inhibition: 11%

## O=C(CC(=O)C(F)(F)F)c1ccco1
[1]
  inhibition: 14%

## CC(C(=O)c1cccs1)C(=O)C(F)(F)F (configuration not stated)
[1]
  inhibition: 11%

## O=C(O)C1CCN1S(=O)(=O)c1cc(Cl)cc(Cl)c1 (configuration not stated)
[1]
  inhibition: 9%

## O=C(O)CNS(=O)(=O)c1ccc(CCCCC2CCNCC2)cc1
[1]
  inhibition: 18%

## O=C(CC(=O)C(F)(F)F)c1ccccc1
[1]
  inhibition: 18%

## O=C(CC(=O)C(F)(F)F)c1cccnc1
[1]
  inhibition: 19%

## O=C(O)C1CCCN1S(=O)(=O)c1ccccc1 (configuration not stated)
[1]
  inhibition: 18%

## O=C(O)C1CCN1S(=O)(=O)c1cccnc1 (configuration not stated)
[1]
  inhibition: 5%

## N#Cc1cc(Br)cc(S(=O)(=O)NCC(=O)O)c1
[1]
  inhibition: 4%

## O=S(=O)(NCB(O)O)c1cc2c(Cl)ccc(Cl)c2s1
[2]
  IC50: 1100 nM
Beta-lactamase SHV-5
  IC50: 570 nM
Beta-lactamase [3]
  IC50: 1200 nM
Beta-lactamase [4]
  IC50: 620 nM
Beta-lactamase [5]
  IC50: 5600 nM

## O=S(=O)(NCB(O)O)c1ccccc1
[6]
  inhibition: 29%

— ChEMBL document CHEMBL1156997, “4,7-Dichloro benzothien-2-yl sulfonylaminomethyl boronic acid: first boronic acid-derived beta-lactamase inhibitor with class A, C, and D activity” (Bioorg Med Chem Lett, 2010)
